According to patent US7759399B2, “Pharmaceutical compositions” (priority 2002, dated 2010):

Columns and labels:
[1] = tested on: HSF; experiment: HSF luciferase reporter assay, HeLa cell clone 13B (human hsp70 promoter); format: cell-based; conditions: 8 h, HeLa clone 13B, 8 h treatment, serum-free medium, read-out: HSF, AC200 (concentration at which the compound doubled the HSF activity)
Procedure: (§1) Method: HeLa cell clone 13B, stably transfected with a luciferase reporter plasmid controlled by the human hsp70 promoter, and HeLa κB-transformed cells, stably transfected with a luciferase reporter plasmid controlled by a synthetic NF-κB-STM construct, were maintained in DMEM medium supplemented with 10% FBS, L-glutamine (2 mM) and G418 (250 μg/ml) at 37° C. in a 5% CO2 humidified atmosphere.
(§2) Cells were seeded at a density of 4×10^4 cells/well in 96-well plates. After 18-20 h, the medium was removed and cells were treated for 8 h with the test compounds (100 μl) at the appropriate dilutions in serum-free medium. For the NF-κB-dependent reporter gene assay, cells were stimulated with TPA (25 ng/ml) 2 h after exposure to the compounds.
(§3) After incubation, the medium was removed and cells were lysed in 10 μl of lysis buffer. The luciferase activity was determined by adding 100 μl of substrate and measuring the release of light using a Victor 1420 microplate reader (Wallac, Finland).
(§4) The AC200/μM for HSF is the concentration at which the tested compound doubled the HSF activity in this assay. The IC50/μM for NF-κB is the concentration at which the tested compound halved the NF-κB activity in this assay.

[2] = tested on: NF-κB; experiment: NF-κB-dependent luciferase reporter gene assay, HeLa κB-transformed cells, TPA stimulated; format: cell-based; conditions: Homo sapiens, HeLa, 8 h treatment, TPA 25 ng/ml 2 h after exposure, read-out: NF-κB, IC50 (concentration at which the compound halved the NF-κB activity)
Procedure: as §1, §2, §3
The fragment Kpn I-BamH I from the pGL3 basic vector containing the luciferase gene (PROMEGA) was inserted in the pcDNA3 vector (INVITROGEN) digested with Bgl II-KpnI. (This digestion removes the CMV-promoter from pcDNA3.) The resulting new vector was digested with Kpn I-Hind III and a promoter containing a ‘5xNF-κB binding sites—TATA box’ sequence was inserted upstream of the luciferase gene. This vector has been named STM.
To obtain stable HeLa cell lines expressing the luciferase gene under the control of NF-κB, HeLa cells were transfected (using lipofectamine plus GIBCO) with the STM-Pvu I linearized vector, and selected for 20 days with G418 (800 μg/ml). After selection, the resistant HeLa cell pool was controlled (in quadruplicate samples) for luciferase activity after stimulation with TNFα, IL-1 and TPA.
as §4

[3] = tested on: Sendai virus; experiment: Sendai virus replication in 37RC cells (virus yield by HAU titration); format: cell-based; conditions: Respirovirus muris, 5 HAU/10^5 cells, virus yield at 24 hours after infection, read-out: ID50 (50% inhibitory dose/concentration), Sendai virus yield
[4] = tested on: uninfected 37RC cells; experiment: Toxicity to uninfected cells, determined visually by microscopy (TD100)
[5] = in vitro; format: cell-based; conditions: 37RC cells, 24 h treatment; read-out: LC50 (50% lethal dose/concentration), Neutral Red
Procedure: Cell viability was determined using the Neutral Red assay. 37RC cells were seeded at density of 6×10^4 cells/well in 24-well plates and incubated for 24 h. Confluent 37RC monolayers were treated with the test compounds at different dilutions for 24 h at 37° C. After incubation, the medium was removed and the cells were incubated with RPMI medium containing 40 μg/ml Neutral Red dye (500 μl/well). After 2 h at 37° C., the monolayers were washed with phosphate-buffered saline (PBS) and then with a solution containing 1% CaCl2 and 0.5% formaldehyde. After washing, a solution containing 1% acetic acid/50% ethanol was added to the monolayers (250 μl/well). After 10 min at room temperature, the absorbance was determined with a microplate reader (Victor 1420, Wallac) at 540 nm.

[6] = Alamar Blue cytotoxicity assay; format: cell-based; conditions: human
Procedure: HeLa cells were plated in 96-well microtiter plates in 100 μl culture medium (4×10^4/well). After 20 hours, the cells were exposed to the test compounds at different dilutions and incubated for the next 8 h at 37° C. in a 5% CO2 humidified atmosphere. After 6 h incubation, the Alamar Blue was added in an amount equal to 10% of the culture volume (10 μl). Two hours after the addition of the Alamar Blue, the fluorescence was measured using a Victor 1420 microplate reader.
The LC50/μM is the concentration at which the tested compound killed half the cells in this assay.

CC(C)(C)OC(=O)N[C@@H](CS[C@@H]1CC(=O)C(C)(C)C1OC(=O)C(C)(C)C)C(=O)O (stereo in doubt) [CTM-217, (2R)-2-tert-butoxycarbonylamino-3-[(1R,2S)-2-(2,2-dimethylpropionyloxy)-3,3-dimethyl-4-oxocyclopentylsulfanyl]-propionic acid]
EC (2-fold) [1]: 10 µM
IC50 [2]: 14 µM

CC(C)(C)OC(=O)N[C@@H](CS[C@H]1CC(=O)C(C)(C)C1OC(=O)C(C)(C)C)C(=O)O (stereo in doubt) [CTM-218, (2R)-2-tert-butoxycarbonylamino-3-[(1S,2R)-2-(2,2-dimethylpropionyloxy)-3,3-dimethyl-4-oxocyclopentylsulfanyl]-propionic acid]
EC (2-fold) [1]: 15 µM
IC50 [2]: 22 µM

CC(C)(C)[Si](C)(C)OC1C=CC(=O)C1 (centres unmarked) [CTC-8, 4-tert-butyldimethylsilyloxy-cyclopent-2-en-1-one, reference compound]
IC50 [3]: 0.5 µM
TD100 (dose or concentration at which the compound was 100% toxic to uninfected cells) [4]: 100 µM

COC(=O)[C@H](CS[C@H]1CC(=O)CC[C@@H]1O[Si](C)(C)C(C)(C)C)NC(=O)OC(C)(C)C [CTM-68, (R)-2-tert-Butoxycarbonylamino-3-[(1S,2S)-2-(tert-butyl-dimethyl-silanyloxy)-5-oxo-cyclohexylsulfanyl]-propionic acid methyl ester]
EC (2-fold) [1]: 98 µM
CC50 at 24 h [5]: 9.8 µM
TD100 (dose or concentration at which the compound was 100% toxic to uninfected cells) [4]: 9.8 µM

COC(=O)C(CSC1CC(=O)CC(O[Si](C)(C)C(C)(C)C)C1)NC(=O)OC(C)(C)C (centres unmarked) [CTM-78, 2-tert-Butoxycarbonylamino-3-[3-(tert-butyl-dimethyl-silanyloxy)-5-oxo-cyclohexylsulfanyl]-propionic acid methyl ester]
EC (2-fold) [1]: 45 µM
CC50 at 24 h [5]: 18.6 µM
TD100 (dose or concentration at which the compound was 100% toxic to uninfected cells) [4]: 18.6 µM

Cc1ccc(S[C@H]2CC(=O)C[C@@H]2O[Si](C)(C)C(C)(C)C)cc1 [CTM-80]
IC50 [3]: 1 µM
EC (2-fold) [1]: 60 µM
IC50 [2]: > 100 µM
CC50 at 8 h [6]: > 800 µM
CC50 at 24 h [5]: 16 µM
TD100 (dose or concentration at which the compound was 100% toxic to uninfected cells) [4]: 50 µM

CC(=O)Nc1ccc(S[C@H]2CC(=O)C[C@@H]2O[Si](C)(C)C(C)(C)C)cc1 [CTM-81]
IC50 [3]: 1 µM
EC (2-fold) [1]: 28 µM
IC50 [2]: 31 µM
CC50 at 8 h [6]: 181 µM
CC50 at 24 h [5]: 17 µM
TD100 (dose or concentration at which the compound was 100% toxic to uninfected cells) [4]: 50 µM

COC(=O)c1ccccc1S[C@H]1CC(=O)C[C@@H]1O[Si](C)(C)C(C)(C)C [CTM-82]
IC50 [3]: 1 µM
EC (2-fold) [1]: 35 µM
IC50 [2]: 54 µM
CC50 at 8 h [6]: > 800 µM
CC50 at 24 h [5]: 16 µM
TD100 (dose or concentration at which the compound was 100% toxic to uninfected cells) [4]: 50 µM

CC(=O)NCCS[C@H]1CC(=O)C[C@@H]1O[Si](C)(C)C(C)(C)C [CTM-83]
IC50 [3]: 3 µM
EC (2-fold) [1]: 27 µM
IC50 [2]: 47 µM
CC50 at 8 h [6]: > 800 µM
CC50 at 24 h [5]: 27 µM
TD100 (dose or concentration at which the compound was 100% toxic to uninfected cells) [4]: 50 µM

CC(C)(C)[Si](C)(C)O[C@H]1CC(=O)C[C@@H]1Sc1ncccn1 [CTM-84]
IC50 [3]: 1 µM
EC (2-fold) [1]: 28 µM
IC50 [2]: 28 µM
CC50 at 8 h [6]: 556 µM
CC50 at 24 h [5]: 6.3 µM
TD100 (dose or concentration at which the compound was 100% toxic to uninfected cells) [4]: 10 µM

CC(C)(C)[Si](C)(C)O[C@H]1CC(=O)C[C@@H]1Sc1ccccn1 [CTM-86]
IC50 [3]: 2 µM
EC (2-fold) [1]: 20 µM
IC50 [2]: 36 µM
CC50 at 8 h [6]: 96 µM
CC50 at 24 h [5]: 7 µM
TD100 (dose or concentration at which the compound was 100% toxic to uninfected cells) [4]: 10 µM

COC(=O)CS[C@H]1CC(=O)C[C@@H]1O[Si](C)(C)C(C)(C)C [CTM-87]
IC50 [3]: 4 µM
EC (2-fold) [1]: 48 µM
IC50 [2]: 52 µM
CC50 at 8 h [6]: 260 µM
CC50 at 24 h [5]: 38 µM
TD100 (dose or concentration at which the compound was 100% toxic to uninfected cells) [4]: 50 µM

COC(=O)CCS[C@H]1CC(=O)C[C@@H]1O[Si](C)(C)C(C)(C)C [CTM-88]
IC50 [3]: 10 µM
EC (2-fold) [1]: 60 µM
IC50 [2]: 65 µM
CC50 at 8 h [6]: 477 µM
CC50 at 24 h [5]: 45 µM
TD100 (dose or concentration at which the compound was 100% toxic to uninfected cells) [4]: 50 µM

CC(=O)N[C@@H](CS[C@H]1CC(=O)C[C@@H]1O[Si](C)(C)C(C)(C)C)C(=O)OC(C)(C)C [CTM-106]
IC50 [3]: 4 µM
EC (2-fold) [1]: 26 µM
IC50 [2]: > 100 µM
CC50 at 8 h [6]: 536 µM
CC50 at 24 h [5]: 28 µM
TD100 (dose or concentration at which the compound was 100% toxic to uninfected cells) [4]: 50 µM

CC(C)(C)[Si](C)(C)O[C@H]1CC(=O)C[C@@H]1Sc1ccc([N+](=O)[O-])cc1 [CTM-107]
IC50 [3]: 0.3 µM
EC (2-fold) [1]: 21 µM
IC50 [2]: 47 µM
CC50 at 8 h [6]: 169 µM
TD100 (dose or concentration at which the compound was 100% toxic to uninfected cells) [4]: 10 µM

CC(C)(C)[Si](C)(C)O[C@H]1CC(=O)C[C@@H]1Sc1ccc(F)cc1 [CTM-108]
IC50 [3]: 4 µM
EC (2-fold) [1]: 13 µM
IC50 [2]: > 100 µM
CC50 at 8 h [6]: > 800 µM
CC50 at 24 h [5]: 29 µM
TD100 (dose or concentration at which the compound was 100% toxic to uninfected cells) [4]: 50 µM

Cc1cc(C)n(CCS[C@H]2CC(=O)C[C@@H]2O[Si](C)(C)C(C)(C)C)n1 [CTM-109]
IC50 [3]: 4 µM
EC (2-fold) [1]: 29 µM
IC50 [2]: > 100 µM
CC50 at 8 h [6]: 267 µM
CC50 at 24 h [5]: 33 µM
TD100 (dose or concentration at which the compound was 100% toxic to uninfected cells) [4]: 50 µM

CC(S[C@H]1CC(=O)C[C@@H]1O[Si](C)(C)C(C)(C)C)C(=O)NCC(=O)O (some centres unmarked) [CTM-110]
IC50 [3]: 1 µM
EC (2-fold) [1]: 27 µM
IC50 [2]: > 100 µM
CC50 at 8 h [6]: > 800 µM
CC50 at 24 h [5]: 18 µM
TD100 (dose or concentration at which the compound was 100% toxic to uninfected cells) [4]: 50 µM

CC(=O)N[C@@H](CS[C@H]1CC(=O)C[C@@H]1O[Si](C)(C)C(C)(C)C)C(=O)O [CTM-115]
IC50 [3]: 50 µM
CC50 at 8 h [6]: > 800 µM
CC50 at 24 h [5]: 228 µM
TD100 (dose or concentration at which the compound was 100% toxic to uninfected cells) [4]: >500 µM

CCOC(=O)[C@H](CS[C@H]1CC(=O)C[C@@H]1O[Si](C)(C)C(C)(C)C)NC(C)=O [CTM-131]
IC50 [3]: 10 µM
EC (2-fold) [1]: 70 µM
IC50 [2]: > 100 µM
CC50 at 8 h [6]: > 800 µM
CC50 at 24 h [5]: 125 µM
TD100 (dose or concentration at which the compound was 100% toxic to uninfected cells) [4]: 50 µM

CC(C)(C)OC(=O)N[C@@H](CS[C@H]1CC(=O)C[C@@H]1O[Si](C)(C)C(C)(C)C)C(=O)O [CTM-145]
IC50 [3]: 0.8 µM
CC50 at 8 h [6]: > 800 µM
CC50 at 24 h [5]: 14 µM
TD100 (dose or concentration at which the compound was 100% toxic to uninfected cells) [4]: 50 µM

C[C@@H](CS[C@H]1CC(=O)C[C@@H]1O[Si](C)(C)C(C)(C)C)C(=O)N1CCCC1C(=O)O (some centres unmarked) [CTM-182]
IC50 [3]: 5 µM
EC (2-fold) [1]: 60 µM
IC50 [2]: > 100 µM
CC50 at 24 h [5]: 54 µM
TD100 (dose or concentration at which the compound was 100% toxic to uninfected cells) [4]: 100 µM

CC(C)(C)OC(=O)N[C@@H](CS[C@H]1CC(=O)C[C@@H]1O[Si](C)(C)C(C)(C)C)C(=O)OC(C)(C)C [CTM-183]
IC50 [3]: 1.6 µM
CC50 at 24 h [5]: 28 µM
TD100 (dose or concentration at which the compound was 100% toxic to uninfected cells) [4]: 50 µM

CCOC(=O)[C@H](CS[C@H]1CC(=O)C[C@@H]1O[Si](C)(C)C(C)(C)C)NC(=O)OC(C)(C)C [CTM-184]
IC50 [3]: 1 µM
EC (2-fold) [1]: 24 µM
IC50 [2]: 61 µM
CC50 at 24 h [5]: 25 µM
TD100 (dose or concentration at which the compound was 100% toxic to uninfected cells) [4]: 50 µM
